Reference: article PMC12392461, “Beyond Estrogenicity: A Comparative Assessment of Bisphenol A and Its Alternatives in In Vitro Assays Questions Safety of Replacements” (Environmental Science & Technology, 2025)
Where two headings read alike, the source gives them in different places.

Legend:
[1] = target: T1, Aryl hydrocarbon receptor (Rattus norvegicus, UniProt P41738); settings: for EC10, linear / logEC10 / EC10, linear transformed: Bioassay AhR, dosing range all; for EC10, linear: linear model fit; for logEC10: log-logistic model fit; for log(1/EC10) AhR: input of the ToxPi score, values up to 1.00; for SR-ScoreAhR: SR-Score, sigma k=1, x=5; for EC10, AhR: effect
T1 sequence (P41738 10-853): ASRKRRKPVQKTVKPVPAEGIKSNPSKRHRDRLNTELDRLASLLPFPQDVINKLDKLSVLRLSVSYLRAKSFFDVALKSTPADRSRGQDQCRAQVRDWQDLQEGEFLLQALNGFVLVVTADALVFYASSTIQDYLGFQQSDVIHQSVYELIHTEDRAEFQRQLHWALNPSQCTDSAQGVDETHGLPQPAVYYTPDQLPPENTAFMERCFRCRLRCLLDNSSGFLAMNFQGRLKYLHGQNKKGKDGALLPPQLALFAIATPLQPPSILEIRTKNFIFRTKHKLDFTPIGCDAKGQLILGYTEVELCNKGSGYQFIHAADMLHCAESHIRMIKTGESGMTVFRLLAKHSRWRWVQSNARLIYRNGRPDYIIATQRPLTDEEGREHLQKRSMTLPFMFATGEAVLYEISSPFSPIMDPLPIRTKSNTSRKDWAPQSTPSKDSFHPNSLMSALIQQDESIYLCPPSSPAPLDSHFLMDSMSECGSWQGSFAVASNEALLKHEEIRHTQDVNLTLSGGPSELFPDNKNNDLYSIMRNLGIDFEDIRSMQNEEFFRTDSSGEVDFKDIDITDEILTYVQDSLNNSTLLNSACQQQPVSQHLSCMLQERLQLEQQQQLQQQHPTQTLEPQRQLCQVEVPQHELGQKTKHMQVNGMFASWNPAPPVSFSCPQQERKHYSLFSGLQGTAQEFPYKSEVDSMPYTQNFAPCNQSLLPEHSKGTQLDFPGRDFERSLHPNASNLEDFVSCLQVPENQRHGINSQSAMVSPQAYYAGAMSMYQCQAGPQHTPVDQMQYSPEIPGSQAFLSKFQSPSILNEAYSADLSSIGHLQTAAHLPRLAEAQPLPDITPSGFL
Source text: (§1) All bioassay media components and the ERα-UAS-bla GripTite and PPARγ-UAS-bla cells were obtained from Thermo Fisher Scientific (Waltham, MA, USA). AREc32 reporter gene cells based on MCF7 were provided by C. Roland Wolf (Cancer Research UK); AhR CALUX cells (H4L7.5c2 derived from H4IIe) were provided by Michael Denison (UC Davis, USA); and SH-SY5Y cells were purchased from Sigma-Aldrich.
(§2) Cell culture conditions and bioassay protocols including response detection are provided in Text S2.1–2.4 and Table S3. − Cell viability was determined from cell confluency using an IncuCyte S3 Live-Cell Analysis System (Sartorius AG, Essen, Germany) before and after exposure, except for SH-SY5Y cells (live–dead staining with Nuclear Green LcS1 and propidium iodide, Abcam, UK). For metabolic activation experiments, cell viability was assessed using the ToxBLAzer DualScreen Kit (Thermo Fisher Scientific) to capture the remaining toxicity in ERα-UAS-bla GripTite after treatment with the aCYP catalyst (details in Text S2.4).
(§3) For ARE, the concentration that triggered an induction ratio of 1.5 (ECIR1.5) was used as the benchmark value, as detailed in Text S2.5. IC10 values also served as a threshold for data analysis in all assays; only concentrations below IC10 were considered when deriving EC10 or ECIR1.5. […]
(§4) S2: Cell culture and bioassays
(§5) S2.1: Cell Culturing Conditions
All suppliers and sources are given in detail in SI-Excel S3. The bioassay media for the different assays were prepared as follows: Assay medium for ER alpha-UAS-bla GripTite (ERα) and PPAR gamma-UAS-bla 293H (PPARγ) was prepared with 98% Opti-MEM, supplemented with 2% charcoal-stripped FBS, and 100 U/mL penicillin-streptomycin. MitoOxTox and AhR assay medium was comprised of 90% DMEM with GlutaMAX, supplemented with 10% FBS, and 100 U/mL penicillin-streptomycin. Neurotoxicity assay medium consisted of the neurobasal […]
(1 picture or pasted object on this page, not shown here) […]
medium, supplemented with 2% B-27 Supplement and 2 mM GlutaMAX Supplement. SH - SY5Y cells were differentiated with 10 µM all-trans retinoic acid prior to the assay.
S2.2: Cell Seeding and Incubation. For all bioassays, cell suspensions in the respective assay medium were dispensed into each well of 384-well plates using a MultiFlo Dispenser (Biotek, (now Agilent), Winooski, VT, U.S.). After seeding, the plates were incubated at 37° C and 5% CO₂ for […]. The final cell densities and plate types were as follows: Black poly-D-lysine coated 384-well plates (Product No. 354663, Corning Inc., NYC, U.S.) were used for PPARγ:
(§6) 6500 cells/well, ERα: 5000 cells/well. White 384-well plates with a clear bottom (Product No.
781098, Greiner, Kremsmünster, Austria) were utilized for the MitoOxTox assay: 2650

[2] = test system: Mitochondrial Membrane Potential; experiment: cells; settings: for EC10, linear / logEC10: MMP bioassay, dosing range all; for EC10, linear: linear model; for logEC10: log-logistic model; for Specificity ratio (SRbaseline) SRMMP: against baseline cytotoxicity; for Relative effect potency REPMMP: relative to BPA; for SR (MMP inhibition): specificity ratio
Source text: as §1, §2, §3, §4, §5
All suppliers and sources are given in detail in SI-Excel S3. The bioassay media for the different assays were prepared as follows: Assay medium for ER alpha-UAS-bla GripTite (ERα) and […]
2% charcoal-stripped FBS, and 100 U/mL penicillin-streptomycin. MitoOxTox and AhR assay medium was comprised of 90% DMEM with GlutaMAX, supplemented with 10% FBS, and 100 U/mL penicillin-streptomycin. […]
S2.2: Cell Seeding and Incubation. For all bioassays, cell suspensions in the respective assay medium were dispensed into each well of 384-well plates using a MultiFlo Dispenser (Biotek, (now Agilent), Winooski, VT, U.S.). After seeding, the plates were incubated at 37° C and 5% CO₂ for […]. The final cell densities and plate types were as follows: Black poly-D-lysine […]
as §6
NYC, U.S.) for AhR: 3250 cells/well. Black Collagen I coated plates were used (Product No.
S2.3: Chemical Dosing and Assay Analysis Procedures. The dosing procedure and high-throughput assay workflow have been described in detail before. 9 The dosing concentrations […]
Stock solutions were then either

[3] = Arec32, read-out: EC10, MMP (M)
[4] = Arec32, read-out: EC10, linear transformed
[5] = against experimental cytotoxicity

SMILES: Cc1ccc(S(=O)(=O)NC(=O)Nc2ccc(Cc3ccc(NC(=O)NS(=O)(=O)c4ccc(C)cc4)cc3)cc2)cc1 [BTUM, 4,4'-Bis(p-tolylsulfonylureido)diphenylmethane]
- EC10, linear [1]: no effect
- logEC10 [1]: no effect
- EC10, linear [2]: no effect
- logEC10 [2]: no effect

SMILES: O=S(=O)(c1ccc(O)cc1)c1ccc(O)cc1 [BPS, 4,4'-Sulfonyldiphenol]
- EC10, linear [1]: no effect
- logEC10 [1]: no effect
- log(1/EC10) AhR [1]: 0.68
- EC10 ([2]; Arec32, read-out: EC10, MMP): 0.000117 M
- EC10 [2, 3]: 0.000117 M
- EC10 ([2]; Arec32, read-out: EC10, linear): 7.55e-05 M
- EC10 [2, 4]: 0.000118 M
- EC10 ([2]; Arec32, read-out: logEC10): 0.000117 M

SMILES: Cc1ccc(S(=O)(=O)NC(=O)Nc2cccc(OS(=O)(=O)c3ccc(C)cc3)c2)cc1 [Pergafast, N-(p-toluenesulfonyl)-N'-(3-(p-toluenesulfonyloxy)phenyl)urea]
- EC10, AhR (M) [1]: 2.29 × 10^–5 M
- EC10, linear transformed [1]: 2.45E-05
- EC10, linear [1]: 2.29E-05
- logEC10 [1]: -4.61
- SR-ScoreAhR [1]: 0.73
- Specificity ratio (SRbaseline) SRAhR ([1]; against baseline cytotoxicity): 6.02
- EC10, AhR [1]: 22.9 µM
- EC10, linear [2]: no effect
- logEC10 [2]: no effect
- log(1/EC10) MMP ([2]; input of the ToxPi score, values up to 1.00): 0.92

SMILES: CC(C)Oc1ccc(S(=O)(=O)c2ccc(O)cc2)cc1 [D8, 4-((4-Isopropoxyphenyl)sulfonyl)phenol]
- EC10, linear [1]: no effect
- logEC10 [1]: no effect
- log(1/EC10) AhR [1]: 0.75
- EC10 ([2]; Arec32, read-out: EC10, MMP): 5.2e-05 M
- EC10 [2, 3]: 5.2e-05 M
- EC10 ([2]; Arec32, read-out: EC10, linear): 5.8e-05 M
- EC10 [2, 4]: 5.14e-05 M
- EC10 ([2]; Arec32, read-out: logEC10): 5.25e-05 M
- Specificity ratio (SRbaseline) SRMMP [2]: 2.47
- Specificity ratio (SRcytotoxicity) SRMMP [2, 5]: 41.11
- Relative effect potency REPMMP [2]: 0.54
- SR (MMP inhibition) [2]: 41

SMILES: CC1(C)[C@H](O)C(C)(C)[C@H]1O [Trans TMCD]
- EC10, linear transformed [1]: 8.49E-03
- EC10, linear [1]: no effect
- logEC10 [1]: -2.00
- EC10 ([2]; Arec32, read-out: EC10, linear): 0.0141 M
- EC10 [2, 4]: 0.0185 M
- EC10 ([2]; Arec32, read-out: logEC10): 0.0186 M

SMILES: CC(C)(c1cc(Cl)c(O)c(Cl)c1)c1cc(Cl)c(O)c(Cl)c1 [TCBPA, 2,2',6,6'-Tetrachlorobisphenol A]
- EC10, linear transformed [1]: 7.24E-05
- EC10, linear [1]: 1.69E-04
- logEC10 [1]: no effect
- log(1/EC10) AhR [1]: 0.84
- EC10 ([2]; Arec32, read-out: EC10, MMP): 1.48e-05 M
- EC10 [2, 3]: 1.48e-05 M
- EC10 ([2]; Arec32, read-out: EC10, linear): 1.15e-05 M
- EC10 [2, 4]: 1.6e-05 M
- EC10 ([2]; Arec32, read-out: logEC10): 1.48e-05 M

SMILES: CCC(C)(c1ccc(O)cc1)c1ccc(O)cc1 [BPB, 4,4'-(Butane-2,2-diyl)diphenol]
- EC10, linear [1]: no effect
- logEC10 [1]: no effect
- log(1/EC10) AhR [1]: 0.83
- EC10 ([2]; Arec32, read-out: EC10, MMP): 1.64e-05 M
- EC10 [2, 3]: 1.64e-05 M
- EC10 ([2]; Arec32, read-out: EC10, linear): 9.79e-06 M
- EC10 [2, 4]: 1.62e-05 M
- EC10 ([2]; Arec32, read-out: logEC10): 1.62e-05 M
- Specificity ratio (SRbaseline) SRMMP [2]: 1.33
- Specificity ratio (SRcytotoxicity) SRMMP [2, 5]: 2.14
- Relative effect potency REPMMP [2]: 1.71

SMILES: O=S(=O)(c1ccc(O)cc1)c1ccccc1O [2,4-BPS, 2,4'-Dihydroxydiphenyl sulfone]
- EC10, linear [1]: no effect
- logEC10 [1]: no effect
- log(1/EC10) AhR [1]: 0.74
- EC10 ([2]; Arec32, read-out: EC10, MMP): 5.9e-05 M
- EC10 [2, 3]: 5.9e-05 M
- EC10 ([2]; Arec32, read-out: EC10, linear): 4.26e-05 M
- EC10 [2, 4]: 5.93e-05 M
- EC10 ([2]; Arec32, read-out: logEC10): 5.89e-05 M
- Specificity ratio (SRbaseline) SRMMP [2]: 11.47
- Specificity ratio (SRcytotoxicity) SRMMP ([2]; human, 24 h): 14.98
- Relative effect potency REPMMP [2]: 0.47

SMILES: O=C(OCc1ccccc1)c1ccc(O)cc1 [BzPB, Benzyl 4-hydroxybenzoate]
- EC10, linear transformed [1]: 1.73E-04
- EC10, linear [1]: no effect
- logEC10 [1]: no effect
- log(1/EC10) AhR [1]: 0.80
- EC10 ([2]; Arec32, read-out: EC10, MMP): 2.44e-05 M
- EC10 [2, 3]: 2.44e-05 M
- EC10 ([2]; Arec32, read-out: EC10, linear): 1.68e-05 M
- EC10 [2, 4]: 2.45e-05 M
- EC10 ([2]; Arec32, read-out: logEC10): 2.45e-05 M
- Specificity ratio (SRbaseline) SRMMP [2]: 1.38
- Specificity ratio (SRcytotoxicity) SRMMP [2, 5]: 12.18
- Relative effect potency REPMMP [2]: 1.15
- SR (MMP inhibition) [2]: > 10

SMILES: CC(c1ccc(O)cc1)c1ccc(O)cc1 [BPE, 4,4′-Ethylidenbisphenol]
- EC10, AhR (M) [1]: 6.19 × 10^–5 M
- EC10, linear transformed [1]: 7.73E-05
- EC10, linear [1]: 6.19E-05
- logEC10 [1]: -4.12
- SR-ScoreAhR [1]: 0.0256
- EC10, AhR [1]: 61.9 µM
- EC10 ([2]; Arec32, read-out: EC10, MMP): 3.21e-05 M
- EC10 [2, 3]: 3.21e-05 M
- EC10 [2, 4]: 3.01e-05 M
- EC10 ([2]; Arec32, read-out: logEC10): 3.24e-05 M
- EC10, linear [2]: no effect

SMILES: C=CCOc1ccc(S(=O)(=O)c2ccc(O)cc2)cc1 [BPS-MAE, 4-[[4-(Allyloxy)phenyl]sulfonyl]phenol]
- EC10, linear [1]: no effect
- logEC10 [1]: no effect
- log(1/EC10) AhR [1]: 0.71
- EC10 ([2]; Arec32, read-out: EC10, MMP): 7.85e-05 M
- EC10 [2, 3]: 7.85e-05 M
- EC10 ([2]; Arec32, read-out: EC10, linear): 5.59e-05 M
- EC10 [2, 4]: 8.31e-05 M
- EC10 ([2]; Arec32, read-out: logEC10): 7.76e-05 M
